Assay results published in paper PMC12071598, “Piperazine-Substituted Pyranopyridines Exhibit Antiproliferative Activity and Act as Inhibitors of HBV Virion Production” (International Journal of Molecular Sciences, 2025).
≈ marks a conversion by molar mass, not a printed value. Where two headings read alike, the source gives them in different places.

What was measured:
K562 [1] = system: K562; design: method as in PMID 22677031; conditions: leukemic cell lines (including K562) ref 57; cited from earlier work
NDV = experiment: microbe, parasite or virus in culture; type: cell-based, Newcastle disease virus; conditions: avian paramyxovirus 1, 48 h, read-out: NDV IC50, µM
K562 [2] = experiment: Antiproliferative activity, MTT assay, K562; type: cell-based; conditions: Homo sapiens, K562 chronic myeloid leukemia, 72 h
SH-SY5Y = experiment: Antiproliferative activity, crystal violet staining, SH-SY5Y; type: cell-based; conditions: Homo sapiens, SH-SY5Y neuroblastoma, 72 h
VV = experiment: microbe, parasite or virus in culture; type: cell-based; conditions: Orthopoxvirus vaccinia, 48 h, read-out: VV IC50, µM
Nrf2/ARE pathway = experiment: Status of Nrf2/ARE pathway, real-time RT-PCR in A549 cells; type: cell-based; conditions: A549, 10 µM, three days
Description: Increased ROS production is often counteracted by the induction of antioxidant enzymes, many of which are controlled by the Nrf2 transcription factor [49]. So, we analyzed if the compounds could have activated this antioxidant defense system.
A possible effect of the least-toxic 3 compounds (DO11-37, DO11-45, and DO11-47) on the status of Nrf2/ARE pathway was analyzed by quantification of expression of Nrf2 and Nrf2-dependend genes using real-time PCR analysis. A549 cells were seeded in 6-well plates at a density of 3.09 × 10^5 cells/well in DMEM-F12 media supplemented with FBS and glutamine and treated with 10 µM compounds for three days. Next, total RNA was isolated using CleanRNA standard kit (Evrogen) with subsequent treatment with DNAseI (Roche, Basel, Switzerland), and 2 µg of RNA from each sample was reverse-transcribed using random hexamer primer and mint reverse transcriptase according to manufacturer’s protocol and subjected to real-time PCR as described previously using primers listed in the Table 5.

Influenza A virus = experiment: microbe, parasite or virus in culture; type: cell-based, influenza A virus (H1N1)
SARS-CoV-2 = experiment: microbe, parasite or virus in culture; type: cell-based; conditions: for IC50: Severe acute respiratory syndrome coronavirus 2, Vero C1008, read-out: SARS-CoV-2 IC50, µM
PV1 = experiment: microbe, parasite or virus in culture; type: cell-based, poliovirus type 1; conditions: Enterovirus C, 48 h, read-out: PV1 IC50, µM
HeLa = experiment: Antiproliferative activity, MTT assay, HeLa; type: cell-based; conditions: Homo sapiens, HeLa cervix carcinoma, 72 h
HSV-1 = experiment: microbe, parasite or virus in culture; type: cell-based, herpes simplex virus type 1; conditions: Human alphaherpesvirus 1, 48 h, read-out: HSV-1 IC50, µM
HepaRG = experiment: Cytotoxicity towards non-tumor differentiated HepaRG cells, MTT; type: cell-based, human; conditions: concentration decreasing number of viable cells by 50%; for IC50: Homo sapiens
hepatitis B virus (HBV) = experiment: microbe, parasite or virus in culture; type: cell-based; conditions: Hepatitis B virus, 144 h
DU145 = experiment: Antiproliferative activity, MTT assay, DU145; type: cell-based; conditions: Homo sapiens, DU-145, DU145 prostate carcinoma, 72 h
[3] = Cytotoxicity by MTS assay in MDCK cells; type: cell-based; conditions: dog, read-out: Influenza A Virus CC50
Description: Production of influenza A virus (H1N1) stock and its infection of MDCK cells, as well as infection of Vero E6 cells with SARS-CoV-2, were described previously. Cytotoxicity of the compounds towards MDCK and VeroE6 cells was assessed by seeding 18,000 cells/well of […] plates in 0.1 mL DMEM, treating with the compounds for 66 h, and measuring cell viability by MTS assay. As positive controls, oseltamivir and N-hydroxicytidine were used (obtained from Sigma).
The compounds were added at non-toxic concentrations in serum-free DMEM to the respective cells; one hour later, the serial 10-fold dilutions of influenza virus or SARS-CoV-2 were added in serum-free medium, and antiviral activity was determined by the reduction in the infectious titer of the virus by cytopathic action (CPE). Calculation of 50% cytotoxic concentration (CC50) and 50% effective concentration (IC50) was performed by standard methods using Microsoft Excel 5.0 and GraphPad Prism 8 (GraphPad Software Inc., Boston, MA, USA).

A549 [4] = experiment: Antiproliferative activity, MTT assay, A549; type: cell-based; conditions: Homo sapiens, A549 lung carcinoma, 72 h
A549 cells = experiment: Intracellular ROS assay, DCFH2-DA in A549 cells; type: cell-based; conditions: A549, 10 µM, 72 h
Description: As cell death is often triggered by increased production of reactive oxygen species (ROS), the next step was to evaluate if our compounds act as pro-oxidants. ROS production was accessed using cell-permeable redox sensitive DCFH2-DA dye. […] As one of the main sites of ROS production is mitochondria, we also evaluated their membrane potential during treatment with either DO11-46 or DO11-48. […] Lysosome activation often accompany late stages of apoptosis, which is in good accordance with our data on the induction of caspase3/7 activity.
Pro-oxidant activity of the compounds was studied by quantification of ROS production using a cell-permeable fluorogenic probe 2′,7′-dichlorodihydrofluorescein diacetate (DCFH2-DA). A549 cells were seeded on a 48-well plate at a density of 10,000 cells/well. Twenty-four hours later, the compounds were added to 10 µM concentration in quadruplicate, and the cells were kept for 72 h. As a positive control, A549 cells were treated with 1 mM H2O2 for 2 h prior analysis. Then, media were replaced with the fresh FBS-lacking DMEM supplemented with 25 µM DCFH2-DA. After 45 min incubation, the cells were washed 10 times with 500 µL PBS, resuspended in 200 µL PBS and transferred to a black 96-well plate. The fluorescence intensities (FLIs) were measured using CHAMELEON V microplate reader with excitation at 485 nm and emission at 535 nm.

H1299 cells [5] = experiment: Cell death in H1299 cells, NucView 488 caspase 3/7 and 7-AAD staining; type: cell-based; conditions: H1299, 72 h; 2.5 and 5 µM DO11-46 or 5 and 10 µM DO11-48
Description: To investigate the mechanism of the cytotoxic action of piperazine-substituted pyranopyridines, we evaluated two compounds, namely, DO11-46 and DO11-48, that acted in submicromolar concentrations. The first step was to which type of cell death they induce. This was carried out by staining H1299 cells with 7AAD dye that stains non-viable cells (with damaged membrane) and NucView-488 dye for caspase 3/7 activity as they are activated during apoptosis. Imaging and analysis protocols for H1299 were established earlier, and cells were imaged using automated microscopy and then analyzed using Cellpose and CellProfiler.
To analyze cell death mechanisms, we stained cells NucView 488 (Biotium, Fremont, CA, USA) probe for caspase 3 and 7 activity, 1 ug/mL of non-permeable DNA dye 7-AAD (BioinnLabs, Russia), and stain for labile Fe2+ HMRhoNox-M (Lumiprobe, Russia). Cells were treated with drugs for 72 h and then stained for 30 min with 2 uM NucView 488 and 2 uM HMRhoNox-M at 37 °C. Then, cells were washed once in DMEM with low autofluorescence, then 1 ug/mL 7-AAD was added, and cells were imaged using Leica DMI8 automated microscope. […] HMRhoNox-M signal was analyzed as mean fluorescence intensity per cell. Experiments were repeated two independent times, and 4 random images were recorded each time.

H1299 cells [6] = experiment: Mitochondrial membrane potential, TMRE in H1299 cells; type: cell-based; conditions: H1299, 72 h
Description: (§1) H1299 cells were seeded at 750 cells/well density in 96-well plate, treated with drugs for 72 h and then stained with 1 ug/mL Hoechst-33342 (Lumiprobe, Moscow, Russia), 100 nM TMRE (Lumiprobe, Russia) potential-dependent mitochondria stain, 100 nM LumiTracker LysoGreen (Lumiprobe, Russia) stain for acidic lysosomes, and 0.33 ug/mL Tubulin Tracker Deep Red (Invitrogen, USA). Cells were stained at 37 °C for 30 min with all stains, except for LysoGreen, which was added 5 min before imaging. Cells were washed once and imaged in DMEM with low autofluorescence (BioinnLabs, Rostov na Donu, Russia) with Leica DMI8 automated microscope (Wetzlar, Germany). Fluorescent imaging was performed using 10× objective with the following parameters: for Hoechst-33342 excitation 325–375 nm and emission 435–485 nm, LysoGreen 460–500/512–542 nm, TMRE 541–551/565–605 nm, and Tubulin Tracker 590–650/662–738 nm. For nuclei segmentation, we applied cyto3 model from Cellpose v3 [42] to Hoechst-33342 images, and cell cytoplasm was segmented using merged TMRE and Tubulin Tracker images with Sauvola propagation method in CellProfiler v4.2 [43]. Integrated intensity of TMRE and LysoGreen fluorescence for each cell were calculated using CellProfiler. […] Experiments were repeated two independent times, and 4 random images were recorded each time.

H1299 cells [7] = experiment: Lysosome accumulation, LysoGreen in H1299 cells; type: cell-based; conditions: H1299, 72 h
Description: as §1

H1299 cells [8] = experiment: Labile Fe2+ levels, HMRhoNox-M in H1299 cells; type: cell-based; conditions: H1299, 72 h
Description: To analyze cell death mechanisms, we stained cells NucView 488 (Biotium, Fremont, CA, USA) probe for caspase 3 and 7 activity, 1 ug/mL of non-permeable DNA dye 7-AAD (BioinnLabs, Russia), and stain for labile Fe2+ HMRhoNox-M (Lumiprobe, Russia). Cells were treated with drugs for 72 h and then stained for 30 min with 2 uM NucView 488 and 2 uM HMRhoNox-M at 37 °C. Then, cells were washed once in DMEM with low autofluorescence, then 1 ug/mL 7-AAD was added, and cells were imaged using Leica DMI8 automated microscope. Fluorescent imaging was performed using 10x objective with the following parameters: for Hoechst-33342 excitation 325–375 nm and emission 435–485 nm, NucView 488 460–500/512–542 nm, HMRho-Nox-M 541–551/565–605 nm, and 7-AAD 590–650/662–738 nm. Cells were segmented using images in bright field with cyto3 model from Cellpose and then processed in CellProfiler. 7-AAD and NucView 488 images were used to segment nuclei of necrotic or apoptotic cells in CellProfiler. If a cell contained nucleus stained with NucView 488, it was considered as apoptotic, and if it contained a nucleus stained only with 7-AAD, it was considered as necrotic. HMRhoNox-M signal was analyzed as mean fluorescence intensity per cell. Experiments were repeated two independent times, and 4 random images were recorded each time.

A549 [9] = conditions: read-out: IC50 against A549; cited from earlier work
[10] = read-out: Extracellular HBV DNA (Δlog10)
[11] = read-out: Intracellular Total HBV RNA (Δlog10)

CC(=O)C(=NNc1ccc2c(=O)cc(-c3ccccc3)oc2c1)N1CCCCC1 [11a, 7-[2-(2-oxo-1-(piperidin-1-yl)propylidene)hydrazinyl]-2-phenyl-4H-chromen-4-one]
IC50 against K562 (K562 [1]): 2.56 ± 0.57 µg/mL (≈ 6.57 µM)

COc1cccc(NC(=O)CSc2nc(N3CCNCC3)c3c(c2C#N)CC(C)(C)OC3)c1 [DO11-47, 2-[(5-Cyano-3,3-dimethyl-8-piperazin-1-yl-3,4-dihydro-1H-pyrano[3,4-c]pyridin-6-yl)thio]-N-(3-methoxyphenyl)acetamide]
IC50 (NDV): > 60 µM
IC50 (K562 [2]): 12.8 ± 4.2 µM
IC50 (SH-SY5Y): 36.7 ± 18.2 µM
IC50 (VV): > 60 µM
expression of Nrf2, NQO1, HO-1, GCLC, and GCLM genes (Nrf2/ARE pathway): increase was not statistically significant
Influenza A Virus Δlgmax (Influenza A virus): 0
SARS-CoV-2 Δlgmax (SARS-CoV-2): 0
IC50 (SARS-CoV-2): > 38 µM
IC50 (PV1): > 60 µM
IC50 (HeLa): 39.3 ± 16.9 µM
IC50 (HSV-1): > 60 µM
IC50 (HepaRG): 437 ± 14.8 µM
IC50 (µM) HepaRG (HepaRG): almost non-toxic
log reduction at 1 µM (hepatitis B virus (HBV); [10]): < 0.5
log reduction at 10 µM (hepatitis B virus (HBV); [10]): < 0.5
log reduction at 1 µM (hepatitis B virus (HBV); [11]): < 0.5
log reduction at 10 µM (hepatitis B virus (HBV); [11]): < 0.5
IC50 (DU145): 10 ± 2.9 µM
CC50 at 66 h [3]: 810 µM
IC50 (A549 [4]): 67.8 ± 5.8 µM

COc1ccccc1NC(=O)CSc1nc(N2CCNCC2)c2c(c1C#N)CC(C)(C)OC2 [DO11-48, 2-[(5-Cyano-3,3-dimethyl-8-piperazin-1-yl-3,4-dihydro-1H-pyrano[3,4-c]pyridin-6-yl)thio]-N-(2-methoxyphenyl)acetamide]
IC50 (NDV): > 3.75 µM
IC50 (K562 [2]): 0.5 ± 0.1 µM
IC50 (SH-SY5Y): 18.1 ± 5.1 µM
IC50 (VV): > 3.75 µM
ROS generation (A549 cells): significantly increased ROS generation
number of apoptotic and necrotic cells (H1299 cells [5]): increased the number of apoptotic and necrotic cells
Influenza A Virus Δlgmax (Influenza A virus): 0
SARS-CoV-2 Δlgmax (SARS-CoV-2): 0
IC50 (SARS-CoV-2): > 10 µM
IC50 (PV1): > 3.75 µM
mitochondrial membrane potential (H1299 cells [6]): neither of them caused mitochondrial dysfunction
IC50 (HeLa): 2.2 ± 0.6 µM
IC50 (HSV-1): > 3.75 µM
IC50 (HepaRG): 10.9 ± 1.6 µM
log reduction at 1 µM (hepatitis B virus (HBV); [10]): < 0.5
log reduction at 10 µM (hepatitis B virus (HBV); [10]): < 0.5
log reduction at 1 µM (hepatitis B virus (HBV); [11]): < 0.5
log reduction at 10 µM (hepatitis B virus (HBV); [11]): < 0.5
IC50 (DU145): 2.5 ± 1.2 µM
CC50 at 66 h [3]: 830 µM
accumulation of lysosomes (H1299 cells [7]): induced the accumulation of lysosomes
levels of Fe2+ ions (H1299 cells [8]): did not affect
IC50 (A549 [4]): 3.5 ± 0.7 µM

CC(=O)CN1CCN(c2ccc(C(=O)C=Cc3ccc(N(C)C)cc3)cc2)CC1 [dimethylamino-4’-[N-(2-oxopropyl)-1-piperazinyl]chalcone]
IC50 (A549 [9]): 0.19 µM
